Results: PMC10891539, “Plant Extracts and Phytochemicals from the Asteraceae Family with Antiviral Properties” (Molecules, 2024)
Where two headings read alike, the source gives them in different places.

Assays:
[1] = Cytotoxicity assay (MTT) on Vero cells; format: cell-based; details: African green monkey
Experimental: (§1) Vero (African green monkey kidney, ATCC CCL-81) cells were grown in Eagle’s minimum essential medium (MEM, Gibco™ Thermo Fisher Scientific, Waltham, MA, USA) supplemented with 5% heat-inactivated newborn bovine serum (NBS, Gibco™ Thermo Fisher Scientific, Carlsbad, CA, USA) and 1.5 g/L of sodium bicarbonate in a 5% CO2 atmosphere. For the maintenance medium (MM), the serum concentration was reduced to 1.5%. The C6/36 HT mosquito cell line from Aedes albopictus (ATCC CRL-1660), adapted to grow at 33 °C, was cultured in L-15 Medium (Leibovitz) supplemented with 0.3% tryptose phosphate broth, 0.02% glutamine, 1% MEM non-essential amino acids solution, and 5% FBS. The original stock of DENV-2 strain NGC was prepared in C6/36 cells and titrated via plaque formation in Vero cells.
Confluent cell monolayers in 96-well plates were exposed for 48 h to serial two-fold compound dilutions, four wells for each concentration, and then viability was tested. The concentration range evaluated for extracts was 1–250 µg/mL, and for pure compounds, it was 1–200 µM or 1–100 µM depending on the phytochemical. […] Cell cultures treated with 0.01% concentration of vehicle (DMSO or methanol) were taken as cell control. Cell viability determinations were performed by the 3-(4,5-dimethylthiazol-2-yl)-2,5-diphenyl tetrazolium bromide (MTT, Sigma-Aldrich, St. Louis, MO, USA) method, adding 10 µL of MM containing MTT reagent (final concentration 0.5 mg/mL) to each well. After 2 h of incubation at 37 °C, the supernatants were removed, 100 µL of ethanol was added per well to solubilize the formazan crystals, and absorbance was measured at 595 nm. Viability values (% respect to cell control): The cytotoxic concentration 50% (CC50) was calculated via non-linear regression using GraphPad Prism (v9.0.) software as the compound concentration required to reduce the MTT signal by 50% compared to cell controls treated with vehicle (DMSO or methanol), and it is presented as the mean ± standard deviation (SD) obtained from three independent experiments.

DENV-2 = test: Antiviral activity, virus yield inhibition assay (plaque assay) against DENV-2 in Vero cells; format: cell-based, dengue virus (DENV-2 strain NGC); details: for activity against DENV-2 (in words): DENV-2 in Vero cells
Experimental: Figure 3 Antiviral activity of dichloromethane (A) and methanolic extracts (B) and against DENV-2 in Vero cells. Cells were infected with DENV-2 (m.o.i. 0.1 PFU/cell) and, after 1 h adsorption at 37 °C, were treated with medium containing different dilutions of the dichloromethane extracts or vehicle. After 48h of infection, viral yield was determined via plaque assay. […] Results are expressed as the mean values ± standard deviation (SD).
Figure 4 Antiviral activity of pure compounds against DENV-2 in Vero cells. Cells were infected with DENV-2 (m.o.i. 0.1 PFU/cell) and, after 1 h adsorption at 37 °C, were treated with medium containing different dilutions of the pure compounds or vehicle (dimethyl sulfoxide). After 48 h of infection, viral yield was determined via plaque assay. Results are expressed as the mean values ± standard deviation (SD).
as §1
Antiviral activity was evaluated with a virus yield inhibition assay. Cells grown in 24-well microplates were infected with DENV-2 at a multiplicity of infection (m.o.i.) of 0.1 PFU/cell, and after 1 h adsorption at 37 °C, the unadsorbed virus was removed by washing with PBS and refed with MM containing different two-fold dilutions of each compound or vehicle (DMSO or methanol). […] The concentration of the solvent used for the control was the maximum present in the highest concentration of the extract or compound evaluated. After 48 h of infection, supernatants were collected and cooled down, and serial dilutions were prepared to infect Vero cell monolayers to measure virus yield via the PFU method. After viral adsorption for 1 h at 37 °C, the virus excess was removed; MM supplemented with 0.7% methylcellulose was added and cells were incubated for 1 week at 37 °C in a 5% CO2 incubator. Finally, cell monolayers were fixed with 10% formaldehyde, washed, and stained with a 1% solution of crystal violet, and PFU were counted. Inhibition values (% respect to viral control): The effective concentration 50% (EC50), as the concentration required to reduce virus yield by 50% in the compound-treated cultures, was calculated via non-linear regression using GraphPad Prism (v9.0) software, compared with viral control treated with vehicle (DMSO or methanol), and presented as the mean ± SD obtained from three independent experiments.

human cancer cell lines = test system: human cancer cell lines; design: method as in PMID 32805622; details: cited from earlier work
[2] = pure phytochemicals, Vero cells, 48 h, MTT, mean of three determinations ± SD, read-out: CC50
[3] = Vero cells (confluent monolayers), pure phytochemicals, Vero cells, 48 h, MTT, mean of three determinations ± SD, read-out: CC50
[4] = Dengue virus, DENV2, Vero, 48 h, pure phytochemicals, concentration reducing DENV-2 yield by 50%, Vero cells, m.o.i. 0.1, 48 h, mean of three ± SD
[5] = pure phytochemicals, concentration reducing DENV-2 yield by 50%, Vero cells, m.o.i. 0.1, 48 h, mean of three ± SD

| Compound | CC50 at 48 h [1, 3] [µM] | EC50 (DENV-2; [4]) [µM] | also measured |
| --- | --- | --- | --- |
| C=C1C(=O)O[C@H]2C[C@]3(C)O[C@@H]3[C@@H]3O[C@@H]3C3=C[C@@H](OC3=O)[C@H]12 [Compound 1, mikanolide] |  |  | CC50 [1]: 6.69 ± 0.49 µM; EC50 (DENV-2; Dengue virus, DENV2, Vero, 48 h): > 2 µM |
| C=C1C(=O)O[C@@H]2/C=C(\C)CC/C=C(\C)C[C@@H](OC(=O)/C(=C/CO)CO)[C@@H]12 [Compound 2, eupatoriopicrin] |  |  | CC50 [1, 2]: 10.8 ± 0.88 µM; EC50 (DENV-2; Dengue virus, DENV2, pure phytochemicals, concentration reducing DENV-2 yield by 50%, Vero cells, m.o.i. 0.1, 48 h, mean of three ± SD, read-out: EC50): > 2 µM |
| C=C1C(=O)O[C@@H]2[C@H]3C(C)=CC[C@H]3C(=C)C[C@@H](OC(=O)/C(=C/CO)CO)[C@@H]12 [Compound 3, eupahakonenin B] | 11.2 ± 0.36 | > 2 |  |
| C=C1C(=O)O[C@@H]2/C=C(\CO)CC/C=C(\COC(C)=O)C[C@H](OC(C)=O)[C@@H]12 [Compound 4, minimolide] | 10.6 ± 0.55 | > 2 |  |
| C=C1C(=O)OC2C1CCC(=C)C1CC3OC3(C)C12 (centres unmarked) [Compound 5, estafietin] | 23.5 ± 0.99 | > 2 |  |
| C=C1CC[C@H]2C(=C)C(=O)O[C@@H]2[C@H]2C(C)=CC(=O)[C@@H]12 [Compound 6, 2-oxo-8-deoxyligustrin] | 21.8 ± 4.15 | 3.7 | EC50 (DENV-2; [5]): 3.72 ± 0.28 µM |
| C=C1C(=O)O[C@@H]2/C=C(\C)[C@@H](O)C/C=C(\C)C[C@@H](OC(=O)/C(=C/CO)COC(C)=O)[C@@H]12 [Compound 7, santhemoidin C] | 21 ± 3.65 | 3.1 | EC50 (DENV-2; [5]): 3.12 ± 1.39 µM |
| C=C(C)c1cc2cc(C(C)=O)c(O)cc2o1 [Compound 8, euparin] |  | 6.8 | CC50 at 48 h [1, 2]: > 500 µM; EC50 (DENV-2; [5]): 6.81 ± 0.2 µM |
| COc1cc(-c2oc3cc(O)c(OC)c(O)c3c(=O)c2OC)ccc1O [Compound 9, jaceidin] | > 100 | > 2 |  |
| COc1c(O)cc2oc(-c3ccc(O)c(O)c3)cc(=O)c2c1O [Compound 10, nepetin] |  | > 2 | CC50 at 48 h [1]: > 100 µM; activity against DENV-2 (in words) (DENV-2): inactive |
| COc1cc(-c2cc(=O)c3c(O)c(OC)c(O)cc3o2)ccc1O [Compound 11, jaceosidin] | > 100 | > 2 | activity against DENV-2 (in words) (DENV-2): inactive |
| O=C1C[C@@H](c2ccc(O)c(O)c2)Oc2cc(O)cc(O)c21 [Compound 12, eryodictiol] | > 100 | > 2 |  |
| COc1ccc(-c2cc(=O)c3c(O)c(OC)c(OC)cc3o2)cc1O [Compound 13, eupatorin] |  | > 2 | CC50 [1, 2]: > 200 µM |
| COc1ccc(-c2cc(=O)c3c(O)c(OC)c(OC)cc3o2)cc1OC [Compound 14, 5-demethylsinensetin] | 184 ± 27.8 | > 2 |  |
| macrocephalide A |  |  | 50% cell growth inhibitions (human cancer cell lines): 0.576 µM |
| macrocephalide B |  |  | 50% cell growth inhibitions (human cancer cell lines): 6.37 µM |
